Patent US20150250166A1, “NOOTKATONE AS AN INSECTICIDE AND INSECT REPELLENT” (ALLYLIX, INC., priority 2012, published 2015)

Test system: adult bed bugs (Cimex lectularius)
Assay: Bed bug repellency, treated versus untreated filter paper halves in Petri dish chamber
Assay type: in vivo
Conditions: for Repellency (%) Treatment Group / bed bugs on Nootkatone treatment filter paper (count, of 50) / Repellency (summary of bedbug repellency): 0.1% BHT; for Corrected 0.25% nootkatone repellency / bed bugs on 0.25% Nootkatone-treated filter paper, average count (of 10) / Corrected 1% nootkatone repellency / bed bugs on 1% Nootkatone-treated filter paper, average count (of 10): 0.1% BHT in ethanol, dried paper; for Nootkatone Repellency / bed bugs on nootkatone-treated filter paper (count, of 50): 5% Nootkatone in acetone, 0.1% BHT (title; column head prints 10%); for Nootkatone Repellency (corrected for isopropanol control) / bed bugs on 10% Nootkatone-treated filter paper, average count of five trials (of 10): 10% nootkatone, 0.1% BHT in isopropanol
Procedure: A formulation, containing 10% nootkatone, 0.1% butylated hydroxytoluene (BHT) in isopropanol was tested for efficacy for repelling adult bed bugs (Cimex lectularius). Treatment chambers were created by cutting a circular hole in the bottom of 15-cm Petri dishes. A fine mesh nylon cloth was then glued to Petri dishes, covering the holes. The chambers were formed using the inverted Petri dishes with the screened bottoms serving as the tops and the lids forming the base of the chambers. The lids were secured with rubber bands.
Five semi-circular pieces of filter paper, with a diameter of 15 cm, were arranged so that they were evenly spaced on a sheet of aluminum foil. Equal amounts of 10% nootkatone solution, stored at ambient temperature and humidity, were applied to the filter papers until they were wet to the point of runoff. Five untreated semi-circular pieces were marked with the letter “c”, for control, on both sides in pencil or solvent resistant ink. One nootkatone-treated filter paper and one untreated filter paper were placed with the flat sides against each other, creating a full circle, in the lids of five 15-cm Petri dishes, serving as the treatment chambers described above, such that the entire surface of the lid was covered. Immediately after placing the filter paper semi-circles into the lid, 10 bed bugs, having received a blood meal no more than 7 days before, were placed onto the untreated piece of paper and covered with the ventilated base of the Petri dish. The containers of each replicate were then kept at ambient laboratory temperature and humidity for the duration of the study. The distribution of the bed bugs on the treated and untreated filter papers was recorded at 0.5, 1, 1.5, 2, and 24 hours after being placed in the containers. Observations were made in darkness with the aid of a red lens flashlight. Gloves and a dust mask were worn by the observer to reduce detection of the bed bugs and to minimize disturbance caused by the observer. Five additional treatment chambers were created as described above, except the treated filter paper was soaked with isopropyl alcohol (control treatment), instead of the 10% nootkatone solution. Bed bug distribution in the control chambers were recorded as described for the treatment condition.
The nootkatone treatment repellency was calculated from the following equation: R=[(C−T)/C]*100, where R is the % repellency, C is the fraction of bed bugs on the isopropanol-treated filter papers, and T is the fraction of bed bugs on the nootkatone-treated filter papers.
A formulation, containing 5% nootkatone, 0.1% butylated hydroxytoluene (BHT) in acetone was tested for efficacy for repelling adult bed bugs (Cimex lectularius) using the methods as described above.
The duration of 1% and 0.25% nootkatone […] repellent effects was evaluated in this example. Bed bug (Cimex lectularius) treatment chambers were created as described in part A above, except using 9-cm Petri dishes and semicircles of filter paper with a diameter of 9 cm. Five replicate semicircles of filter paper were treated with 1 ml 1.0% nootkatone, 0.1% BHT in ethanol; 0.25% nootkatone, 0.1% BHT in ethanol; or ethanol alone (control), and placed side by side with untreated filter papers (marked with a “c”) in Petri dishes so that the lid surfaces were completely covered as previously described in part A. Prior to addition of the bed bugs, the filter papers were confirmed to be completely dry and free of any residual ethanol odor.
Following chamber preparation, 10 bed bugs, having received a blood meal no more than 7 days prior, were added to each chamber on the untreated filter paper as described above. Distribution of the 10 bed bugs per chamber was recorded at 0.5, 1, 1.5, 2, and 24 hours following treatment (Day 1). At the end of 24 hours, the old bed bugs were removed from the Petri dish and 10 new bed bugs were added. […]

[1] = 0.01% nootkatone in acetone, Day 1, 0.5 hour
[2] = 0.01% nootkatone in acetone, Day 1, 1.5 hour
[3] = 0.01% nootkatone in acetone, Day 1, 2.0 hour
[4] = 0.01% nootkatone in acetone, Day 1, Average of time points
[5] = 0.01% nootkatone in acetone, Day 2, 0.5 hour
[6] = 0.01% nootkatone in acetone, Day 2, 1.0 hour
[7] = 0.01% nootkatone in acetone, Day 2, 1.5 hour
[8] = 0.01% nootkatone in acetone, Day 2, 2.0 hour
[9] = 0.01% nootkatone in acetone, Day 2, 24.0 hour
[10] = 0.01% nootkatone in acetone, Day 2, Average of time points
[11] = 0.10% nootkatone in acetone, Day 1, 1.0 hour
[12] = 0.10% nootkatone in acetone, Day 1, 1.5 hour
[13] = 0.10% nootkatone in acetone, Day 1, 24.0 hour
[14] = 0.10% nootkatone in acetone, Day 1, Average of time points
[15] = 0.10% nootkatone in acetone, Day 2, 0.5 hour
[16] = 0.10% nootkatone in acetone, Day 2, 1.0 hour
[17] = 0.10% nootkatone in acetone, Day 2, 1.5 hour
[18] = 0.10% nootkatone in acetone, Day 2, 2.0 hour
[19] = 0.10% nootkatone in acetone, Day 2, 24.0 hour
[20] = 0.10% nootkatone in acetone, Day 2, Average of time points
[21] = 0.50% nootkatone in acetone, Day 1, 1.0 hour
[22] = 0.50% nootkatone in acetone, Day 1, 1.5 hour
[23] = 0.50% nootkatone in acetone, Day 1, 2.0 hour
[24] = 0.50% nootkatone in acetone, Day 1, 24.0 hour
[25] = 0.50% nootkatone in acetone, Day 2, 0.5 hour
[26] = 0.50% nootkatone in acetone, Day 2, 1.5 hour
[27] = 0.50% nootkatone in acetone, Day 2, 2.0 hour
[28] = 0.50% nootkatone in acetone, Day 2, 24.0 hour

Structure (SMILES): C=C(C)[C@@H]1CCC2=CC(=O)C[C@@H](C)[C@]2(C)C1 [nootkatone, 4,4a,5,6,7,8-hexahydro-6-isopropenyl-4,4a-dimethyl-2(3H)-naphtalenone]
- Repellency (%) Treatment Group [1]: 68.0%
- bed bugs on Nootkatone treatment filter paper (count, of 50) [1]: 16
- bed bugs on Nootkatone treatment filter paper (count, of 50) (0.01% nootkatone in acetone, Day 1, 1.0 hour): 17
- Repellency (%) Treatment Group [2]: 66.0%
- bed bugs on Nootkatone treatment filter paper (count, of 50) [2]: 17
- Repellency (%) Treatment Group [3]: 72.0%
- bed bugs on Nootkatone treatment filter paper (count, of 50) [3]: 14
- Repellency (%) Treatment Group (0.01% nootkatone in acetone, Day 1, 24.0 hour): 58.0%
- Repellency (%) Treatment Group [4]: 66.0%
- bed bugs on Nootkatone treatment filter paper (count, of 50) [4]: 17.0
- Repellency (%) Treatment Group [5]: 82.0%
- bed bugs on Nootkatone treatment filter paper (count, of 50) [5]: 9
- Repellency (%) Treatment Group [6]: 72.0%
- bed bugs on Nootkatone treatment filter paper (count, of 50) [6]: 14
- Repellency (%) Treatment Group [7]: 62.0%
- bed bugs on Nootkatone treatment filter paper (count, of 50) [7]: 19
- Repellency (%) Treatment Group [8]: 64.0%
- bed bugs on Nootkatone treatment filter paper (count, of 50) [8]: 18
- Repellency (%) Treatment Group [9]: 62.0%
- bed bugs on Nootkatone treatment filter paper (count, of 50) [9]: 19
- Repellency (%) Treatment Group [10]: 68.4%
- bed bugs on Nootkatone treatment filter paper (count, of 50) [10]: 15.8
- bed bugs on Nootkatone treatment filter paper (count, of 50) (0.10% nootkatone in acetone, Day 1, 0.5 hour): 3
- Repellency (%) Treatment Group [11]: 92.0%
- bed bugs on Nootkatone treatment filter paper (count, of 50) [11]: 4
- Repellency (%) Treatment Group [12]: 90.0%
- bed bugs on Nootkatone treatment filter paper (count, of 50) [12]: 5
- bed bugs on Nootkatone treatment filter paper (count, of 50) (0.10% nootkatone in acetone, Day 1, 2.0 hour): 3
- Repellency (%) Treatment Group [13]: 98.0%
- bed bugs on Nootkatone treatment filter paper (count, of 50) [13]: 1
- Repellency (%) Treatment Group [14]: 93.6%
- bed bugs on Nootkatone treatment filter paper (count, of 50) [14]: 3.2
- Repellency (%) Treatment Group [15]: 72.0%
- bed bugs on Nootkatone treatment filter paper (count, of 50) [15]: 14
- Repellency (%) Treatment Group [16]: 70.0%
- bed bugs on Nootkatone treatment filter paper (count, of 50) [16]: 15
- Repellency (%) Treatment Group [17]: 74.0%
- bed bugs on Nootkatone treatment filter paper (count, of 50) [17]: 13
- Repellency (%) Treatment Group [18]: 70.0%
- bed bugs on Nootkatone treatment filter paper (count, of 50) [18]: 15
- Repellency (%) Treatment Group [19]: 82.0%
- bed bugs on Nootkatone treatment filter paper (count, of 50) [19]: 9
- Repellency (%) Treatment Group [20]: 73.6%
- bed bugs on Nootkatone treatment filter paper (count, of 50) [20]: 13.2
- bedbug repellency, in words (0.1% nootkatone in acetone, day two): moderate (statistically significant) repellent
- bedbug repellency, in words (0.25% nootkatone in ethanol): not sufficient to repel bed bugs
- Corrected 0.25% nootkatone repellency (Day 1): 19%
- bed bugs on 0.25% Nootkatone-treated filter paper, average count (of 10) (Day 1): 2.68
- Corrected 0.25% nootkatone repellency (Day 2): 23%
- bed bugs on 0.25% Nootkatone-treated filter paper, average count (of 10) (Day 2): 4.2
- Corrected 0.25% nootkatone repellency (Day 3): 49%
- bed bugs on 0.25% Nootkatone-treated filter paper, average count (of 10) (Day 3): 2.32
- Corrected 0.25% nootkatone repellency (Day 4): −14%
- bed bugs on 0.25% Nootkatone-treated filter paper, average count (of 10) (Day 4): 4
- Repellency (%) Treatment Group [21]: 100.0%
- bed bugs on Nootkatone treatment filter paper (count, of 50) [21]: 0
- Repellency (%) Treatment Group [22]: 100.0%
- bed bugs on Nootkatone treatment filter paper (count, of 50) [22]: 0
- Repellency (%) Treatment Group [23]: 100.0%
- bed bugs on Nootkatone treatment filter paper (count, of 50) [23]: 0
- Repellency (%) Treatment Group [24]: 100.0%
- bed bugs on Nootkatone treatment filter paper (count, of 50) [24]: 0
- Repellency (%) Treatment Group (0.50% nootkatone in acetone, Day 1, Average of time points): 100.0%
- Repellency (%) Treatment Group [25]: 86.0%
- bed bugs on Nootkatone treatment filter paper (count, of 50) [25]: 7
- bed bugs on Nootkatone treatment filter paper (count, of 50) (0.50% nootkatone in acetone, Day 2, 1.0 hour): 6
- Repellency (%) Treatment Group [26]: 94.0%
- bed bugs on Nootkatone treatment filter paper (count, of 50) [26]: 3
- Repellency (%) Treatment Group [27]: 98.0%
- bed bugs on Nootkatone treatment filter paper (count, of 50) [27]: 1
- Repellency (%) Treatment Group [28]: 92.0%
- bed bugs on Nootkatone treatment filter paper (count, of 50) [28]: 4
- Repellency (%) Treatment Group (0.50% nootkatone in acetone, Day 2, Average of time points): 91.6%
- duration of bed bug repellency following treatment (1% nootkatone in ethanol on filter paper): about 4 days
- Corrected 1% nootkatone repellency (Day 1): 93%
- bed bugs on 1% Nootkatone-treated filter paper, average count (of 10) (Day 1): 0.24
- Corrected 1% nootkatone repellency (Day 2): 66%
- bed bugs on 1% Nootkatone-treated filter paper, average count (of 10) (Day 2): 1.84
- Corrected 1% nootkatone repellency (Day 3): 81%
- bed bugs on 1% Nootkatone-treated filter paper, average count (of 10) (Day 3): 0.88
- Corrected 1% nootkatone repellency (Day 4): 84%
- bed bugs on 1% Nootkatone-treated filter paper, average count (of 10) (Day 4): 0.56
- Corrected 1% nootkatone repellency (Day 5): 68%
- bed bugs on 1% Nootkatone-treated filter paper, average count (of 10) (Day 5): 1.52
- Corrected 1% nootkatone repellency (Day 6): 20%
- bed bugs on 1% Nootkatone-treated filter paper, average count (of 10) (Day 6): 2.24
- Corrected 1% nootkatone repellency (Day 7): 63%
- bed bugs on 1% Nootkatone-treated filter paper, average count (of 10) (Day 7): 1.84
- Nootkatone Repellency (0.5 hr): 100.0%
- bed bugs on nootkatone-treated filter paper (count, of 50) (0.5 hr): 0
- Nootkatone Repellency (1 hr): 100.0%
- bed bugs on nootkatone-treated filter paper (count, of 50) (1 hr): 0
- Nootkatone Repellency (1.5 hr): 100.0%
- bed bugs on nootkatone-treated filter paper (count, of 50) (1.5 hr): 0
- Nootkatone Repellency (2 hr): 100.0%
- bed bugs on nootkatone-treated filter paper (count, of 50) (2 hr): 0
- Nootkatone Repellency (24 hr): 100.0%
- bed bugs on nootkatone-treated filter paper (count, of 50) (24 hr): 0
- Nootkatone Repellency (Averages of time points): 100.0%
- bed bugs on nootkatone-treated filter paper (count, of 50) (Averages of time points): 0
- bed bug repellency compared with acetone alone, in words (5% nootkatone in acetone): repels bed bugs to a greater extent than that observed for acetone alone
- bed bug repellency compared with isopropanol alone, in words (10% nootkatone in isopropyl alcohol): repels bed bugs to a greater extent than that observed for isopropanol alone
- Nootkatone Repellency (corrected for isopropanol control) (0.5 hr): 85.7%
- bed bugs on 10% Nootkatone-treated filter paper, average count of five trials (of 10) (0.5 hr): 0.4
- Nootkatone Repellency (corrected for isopropanol control) (1 hr): 100.0%
- bed bugs on 10% Nootkatone-treated filter paper, average count of five trials (of 10) (1 hr): 0
- Nootkatone Repellency (corrected for isopropanol control) (1.5 hr): 100.0%
- bed bugs on 10% Nootkatone-treated filter paper, average count of five trials (of 10) (1.5 hr): 0
- Nootkatone Repellency (corrected for isopropanol control) (2 hr): 100.0%
- bed bugs on 10% Nootkatone-treated filter paper, average count of five trials (of 10) (2 hr): 0
- Nootkatone Repellency (corrected for isopropanol control) (24 hr): 100.0%
- bed bugs on 10% Nootkatone-treated filter paper, average count of five trials (of 10) (24 hr): 0
- Repellency (summary of bedbug repellency) (Nootkatone 0.010% in acetone, Day 2): 68.0%
- Repellency (summary of bedbug repellency) (Nootkatone 0.10% in acetone, Day 2): 73.6%
- Repellency (summary of bedbug repellency) (Nootkatone 0.50% in acetone, Day 1): 100.0%
- Repellency (summary of bedbug repellency) (Nootkatone 0.50% in acetone, Day 2): 91.6%
